Entries after “also recorded” stand apart in the source; their conditions may differ. Where two headings read alike, the source gives them in different places.
Assays:
rat = experiment: Primary Observation (Irwin) Test in the rat; type: in vivo; conditions: for Hypothermia: at 15 to 60 min and at 180 min; for Decreased muscle tone (rats affected/tested): at 60 to 120 min
Description: Primary Observation (Irwin) Test in the Rat
The method, which detects the first toxic dose, the active dose-range and the main effects of a test substance on behavior and physiological function, follows that described by Irwin et al., Psychopharmacologia, 1968, 13, 222-257. […] All animals within a treatment group were observed simultaneously. Behavioral modifications, physiological and neurotoxicity symptoms, rectal temperature and pupil diameter were recorded according to a standardized observation grid derived from that of Irwin. The grid contains the following items: death, convulsions, tremor, Straub tail, altered activity, jumping, abnormal gait (rolling, tip-toe), motor uncoordination, altered abdominal muscle tone, loss of grasping, akinesia, catalepsy, loss of traction, loss of balance, fore-paw treading, writhes, piloerection, stereotypies (sniffing, chewing, head movements), head twitches, scratching, altered respiration, aggression, altered fear/startle, altered reactivity to touch, ptosis, exophthalmia, loss of righting reflex, loss of corneal reflex, analgesia, defecation/diarrhea, salivation, lacrimation, rectal temperature (hypothermia/hyperthermia) and pupil diameter (myosis/mydriasis). The test substances were evaluated at 2 doses (10 and 60 mg/kg), administered p.o. immediately before the test, and compared with a vehicle control group. Observations were performed 15, 30, 60, 120 and 180 minutes after administration of the test substances/vehicles and also 24 hours later.

CYP2D6 = CYP2D6 (Homo sapiens (Human), UniProt P10635); experiment: Drug-Drug Interaction (DDI) assay, CYP inhibition in human liver microsomes
Chain of CYP2D6 (P10635 whole entry): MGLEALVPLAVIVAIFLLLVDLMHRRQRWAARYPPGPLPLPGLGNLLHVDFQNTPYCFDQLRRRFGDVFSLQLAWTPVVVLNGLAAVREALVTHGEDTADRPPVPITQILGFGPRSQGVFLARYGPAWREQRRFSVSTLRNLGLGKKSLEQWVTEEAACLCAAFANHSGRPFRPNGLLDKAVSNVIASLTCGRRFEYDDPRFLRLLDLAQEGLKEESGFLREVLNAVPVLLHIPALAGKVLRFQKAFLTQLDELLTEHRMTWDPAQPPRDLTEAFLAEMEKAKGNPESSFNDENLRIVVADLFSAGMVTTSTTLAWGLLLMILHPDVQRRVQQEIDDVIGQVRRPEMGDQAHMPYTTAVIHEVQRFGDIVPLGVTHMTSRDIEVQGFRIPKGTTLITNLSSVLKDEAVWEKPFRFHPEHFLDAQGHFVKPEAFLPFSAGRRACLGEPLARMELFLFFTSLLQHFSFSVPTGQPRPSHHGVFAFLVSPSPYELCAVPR
Description: Drug-Drug Interaction (DDI) Assay
The assay was set up and executed using a Biomek FXp robotic liquid handling workstation (Beckman Coulter Corp., Fullerton, Calif.), integrated with a Cytomat shaking incubator set at 37° C. […] A batch of human liver microsomes from 50 donors, pooled and characterized by BD Gentest, (Cat #457111, lot 01220, 20 mg/mL in 250 mM sucrose) was used. Each substrate was incubated at a protein concentration of 0.1, 0.15 or 0.2 mg/mL in a total incubation volume of 0.16 mL. The incubates were prepared in 100 mM potassium phosphate buffer (pH 7.4) supplemented with 5 mM magnesium chloride and 1 mM EDTA. Quinidine was used as a positive control inhibitor for CYP2D6. Quinidine was prepared as a working solution in organic solvent (primarily methanol, with DMSO and acetonitrile as secondary solvents) and was spiked into the microsomal suspension to yield the desired concentration level. The solution was then serially diluted with additional microsomal suspension to yield eight concentration levels. Final organic content was less than 0.07%. […] The final organic content was 0.2%. Incubations were performed in triplicate for each probe substrate.
The control inhibitor (quinidine) and marker substrate (dextromethorphan or bufuralol) were transferred to the incubation vessels (60 μL aliquots each). After a pre-incubation period at 37° C., the reactions were initiated by the addition of a 40 μL aliquot of NADPH regenerating system (BD Gentest). […] Incubation times were 12 minutes for both dextromethorphan and bufuralol. Reactions were terminated by the direct addition of acetonitrile (160 μL) to the incubation mix followed by transfer to a pooling plate containing additional acetonitrile (400 μL).
The incubation reactions were pooled by equal test compound or control inhibitor concentration, transferred to a Phenomenex Strata™ Impact protein precipitation filter plate containing acetonitrile and internal standards (100 μL of a mixture of the following deuterated compounds ranging in concentration from 0.5 to 2.8 μM: hydroxybufuralol-d9, dextrorphan-d3). The resulting filtrate was evaporated to dryness under a nitrogen flow, then reconstituted in 250 μL mobile phase (1:1 methanol:water, containing 0.1% acetic acid). Samples and standards were analyzed on a Sciex API4000 triple quadrupole mass spectrometer. The data were acquired in Analyst 1.4.1 (Applied Biosystems/MDS Sciex). For IC50 assays, the area ratios of the metabolite and internal standard chromatographic peaks were transferred to SigmaPlot (version 8.0) and plotted on a semi-log scale (percent residual activity vs. inhibitor concentration) to determine the IC50 value.

rat FAAH = rat FAAH (Rattus norvegicus (Rat), UniProt P97612); experiment: Assay Method 2: rat FAAH assay (3H-anandamide hydrolysis in cell homogenate); type: biochemical; conditions: average of results
Chain of rat FAAH (P97612 whole entry): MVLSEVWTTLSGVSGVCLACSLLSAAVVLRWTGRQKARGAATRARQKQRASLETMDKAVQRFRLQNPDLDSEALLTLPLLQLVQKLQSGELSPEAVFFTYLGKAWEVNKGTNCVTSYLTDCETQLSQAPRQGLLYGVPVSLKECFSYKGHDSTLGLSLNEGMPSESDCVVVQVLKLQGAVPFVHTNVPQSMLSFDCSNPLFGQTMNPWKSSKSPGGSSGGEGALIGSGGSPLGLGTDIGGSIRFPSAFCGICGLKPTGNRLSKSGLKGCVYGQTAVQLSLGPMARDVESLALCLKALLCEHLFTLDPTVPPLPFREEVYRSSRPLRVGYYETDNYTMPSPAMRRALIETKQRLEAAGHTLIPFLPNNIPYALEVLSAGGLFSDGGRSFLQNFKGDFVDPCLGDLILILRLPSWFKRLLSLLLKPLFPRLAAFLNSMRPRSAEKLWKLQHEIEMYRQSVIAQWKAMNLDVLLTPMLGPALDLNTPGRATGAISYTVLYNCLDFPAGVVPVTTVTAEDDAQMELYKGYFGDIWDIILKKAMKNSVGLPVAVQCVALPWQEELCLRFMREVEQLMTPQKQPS
Description: A. Transfection of Cells with Rat FAAH
(§1) A 10-cm tissue culture dish with a confluent monolayer of SK-N-MC cells was split 2 days (d) prior to transfection. Using sterile technique, the media was removed and the cells were detached from the dish by the addition of trypsin. One fifth of the cells were then placed onto a new 10-cm dish. Cells were grown in a 37° C. incubator with 5% CO2 in Minimal Essential Media Eagle with 10% Fetal Bovine Serum. After 2 d, cells were approximately 80% confluent. These cells were removed from the dish with trypsin and pelleted in a clinical centrifuge. The pellet was re-suspended in 400 μL complete media and transferred to an electroporation cuvette with a 0.4 cm gap between the electrodes. Supercoiled rat FAAH cDNA (1 μg) was added to the cells and mixed. The voltage for the electroporation was set at 0.25 kV, and the capacitance was set at 960 μF. After electroporation, the cells were diluted into complete media (10 mL) and plated onto four 10-cm dishes. Because of the variability in the efficiency of electroporation, four different concentrations of cells were plated. The ratios used were 1:20, 1:10, and 1:5, with the remainder of the cells being added to the fourth dish. The cells were allowed to recover for 24 h before adding the selection media (complete media with 600 μg/mL G418). After 10 d, dishes were analyzed for surviving colonies of cells. […]

FAAH [1] = target: T1, FAAH (Homo sapiens (Human), UniProt O00519); experiment: Assay Method 1: human FAAH assay (3H-anandamide hydrolysis in cell homogenate); type: biochemical; conditions: average of results
T1 sequence (O00519 whole entry): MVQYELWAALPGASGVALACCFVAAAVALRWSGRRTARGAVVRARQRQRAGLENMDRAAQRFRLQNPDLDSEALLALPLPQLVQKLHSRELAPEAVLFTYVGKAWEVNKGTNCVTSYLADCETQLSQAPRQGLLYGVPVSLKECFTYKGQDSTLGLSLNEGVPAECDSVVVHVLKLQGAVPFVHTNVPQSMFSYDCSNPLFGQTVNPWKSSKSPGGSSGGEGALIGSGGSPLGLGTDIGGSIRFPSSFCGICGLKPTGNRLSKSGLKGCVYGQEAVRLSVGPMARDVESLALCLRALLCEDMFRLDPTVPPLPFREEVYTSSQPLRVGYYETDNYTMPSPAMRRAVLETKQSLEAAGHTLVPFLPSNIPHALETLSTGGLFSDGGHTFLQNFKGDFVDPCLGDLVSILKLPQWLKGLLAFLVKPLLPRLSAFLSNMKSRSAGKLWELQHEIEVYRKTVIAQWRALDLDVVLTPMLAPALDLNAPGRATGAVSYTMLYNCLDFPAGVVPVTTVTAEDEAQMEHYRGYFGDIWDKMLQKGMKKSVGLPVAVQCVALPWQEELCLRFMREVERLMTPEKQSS
Description: A. Transfection of Cells with Human FAAH
as §1, with “Supercoiled human” for “Supercoiled rat”

rats [2] = conditions: cited from earlier work
rats [3] = conditions: cited from earlier work; remark: listed apart in the source
FAAH [4] = target: T1, FAAH; conditions: cited from earlier work
rats [5] = conditions: rat; cited from earlier work
rats [6] = conditions: cited from earlier work; remark: listed apart in the source
CREAE mice = conditions: cited from earlier work
[7] = in vivo; cited from earlier work
[8] = in vivo; cited from earlier work; remark: listed apart in the source
[9] = read-out: 2D6 Bufuralol IC50, substrate bufuralol
[10] = read-out: 2D6 Dextromethorphan IC50, substrate dextromethorphan

With O=C(Nc1cccnc1)N1CCN(Cc2ccc3c(c2)OC(F)(F)O3)CC1 [Comparator Compound] the “Increased reactivity to touch (rats affected/tested)” value (rat; 10 mg/kg p.o., at 15 min) was “all rats tested”, the “Sedation (rats affected/tested)” value (rat; 60 mg/kg p.o., 15 to 120 min) was “all rats tested” and the Hypothermia (rat; 60 mg/kg p.o.) was “induced hypothermia”. The “Decreased muscle tone (rats affected/tested)” value (rat; 60 mg/kg p.o.) was “all rats”, the “Abnormal gait (rolling) (rats affected/tested)” value (rat; 60 mg/kg p.o., at 15 min) was “all rats tested” and the IC50 (CYP2D6; [9]) was 3200 nM. The IC50 (CYP2D6; [10]) was 2000 nM.
For O=C(Nc1cnccc1Cl)N1CCN(Cc2ccc3c(c2)OC(F)(F)O3)CC1 [Example 1], the IC50 (rat FAAH) was 320 nM, the “Increased reactivity to touch (rats affected/tested)” value (rat; 10 mg/kg p.o., at 180 min) was “(1/4) at” and the “Abnormal gait (rats affected/tested)” value (rat; 60 mg/kg p.o.) was “(0/4)”. For the same molecule, the “Hypothermia (rats affected/tested)” value (rat; 60 mg/kg p.o.) was “(0/4)”, the “Sedation (rats affected/tested)” value (rat; 60 mg/kg p.o.) was “(0/4)” and the “Increased abdominal muscle tone (rats affected/tested)” value (rat; 60 mg/kg p.o., at 60 min) was “(1/4) at 60 min”. The “Increased reactivity to touch (rats affected/tested)” value (rat; 60 mg/kg p.o., at 60 min) was “(1/4) at 60 min”, the “Increased reactivity to touch (rats affected/tested)” value (rat; 60 mg/kg p.o., at 180 min) was “(1/4) at 180 min” and the IC50 (CYP2D6; [9]) was 24000 nM. The IC50 (CYP2D6; [10]) was 11000 nM and the IC50 (FAAH [1]) was 75 nM.
For O=C(CCCCCCc1ccccc1)c1ncc(-c2ccccn2)o1 [OL-135], the “analgesic efficacy/activity, hot plate” value (rats [2]) is given as “analgesic activity”, the “analgesic activity, tail immersion” value (rats [3]) is given as “analgesic activity” and the FAAH inhibition (FAAH [4]) is given as “potent inhibitor”.
In the case of Cl.O=C(Nc1cccnc1)N1CCN(Cc2ccc3c(c2)OC(F)(F)O3)CC1 [Comparator Compound HCl], the “Increased reactivity to touch (rats affected/tested)” value (rat; 10 mg/kg p.o., at 15 min) is reported as “all 3 rats; also recorded: (3/3) at 15”, the “Sedative/depressant effects (sedation, motor signs and hypothermia)” value (rat; 60 mg/kg p.o.) is reported as “presence of sedative/depressant effects” and the “Sedation (rats affected/tested)” value (rat; 60 mg/kg p.o., 15 to 120 min) is reported as “all 3 rats; also recorded: (3/3) 15 to 120 min”. The Hypothermia (rat; 60 mg/kg p.o.) was “induced hypothermia; also recorded: slight induction at 15”, the “Decreased muscle tone (rats affected/tested)” value (rat; 60 mg/kg p.o.) was “all 3 rats; also recorded: (3/3) at 60 to 120” and the “Abnormal gait (rolling) (rats affected/tested)” value (rat; 60 mg/kg p.o., at 15 min) was “all 3 rats; also recorded: (3/3) at 15 min”.
In the case of NC(=O)c1cccc(-c2cccc(OC(=O)NC3CCCCC3)c2)c1 [URB-597], the “analgesic efficacy, formalin test” value (rats [5]) is given as “analgesic efficacy”, the “analgesic efficacy/activity, hot plate” value (rats [2]) is given as “analgesic efficacy” and the “efficacy in model of anxiety” value (rats [6]) is given as “efficacy”.
In the case of CCCCCCCCCCCCCCCCS(=O)(=O)F [AM374], the spasticity (CREAE mice) is given as “significantly reduce spasticity”.
For O=C(Nc1ccccc1)N1CCN(c2nc(-c3ccccc3)ns2)CC1 [4-(3-Phenyl-[1,2,4]thiadiazol-5-yl)-piperazine-1-carboxylic acid phenylamide], the “efficacy in acute burn injury pain model” value [7] is given as “efficacious” and the “efficacy in neuropathic pain model” value [8] is given as “efficacious”.
In the case of Cl.O=C(Nc1cnccc1Cl)N1CCN(Cc2ccc3c(c2)OC(F)(F)O3)CC1, the “Increased reactivity to touch (rats affected/tested)” value (rat; 10 mg/kg p.o., at 180 min, hydrochloride) is reported as 1 out of 4, the “Sedative/depressant effects (sedation, motor signs and hypothermia)” value (rat; 60 mg/kg p.o.) is reported as “not observed” and the “Increased abdominal muscle tone (rats affected/tested)” value (rat; 60 mg/kg p.o., at 60 min) is reported as 1 out of 4. For the same molecule, the “Increased reactivity to touch (rats affected/tested)” value (rat; 60 mg/kg p.o., at 60 min) was 1 out of the 4, the “Increased reactivity to touch (rats affected/tested)” value (rat; 60 mg/kg p.o., at 180 min) was 1 out of the 4 and the “General effects in the Irwin Test” value (rat; dose-range 10-60 mg/kg p.o.) was “weak and transient arousing effects in only one rat”. The Other signs (rat; up to 24 hours after administration, 10-60 mg/kg p.o.) was “no other signs were observed”.

— US9688664B2, “Modulators of fatty acid amide hydrolase” (JANSSEN PHARMACEUTICA NV, priority 2010, dated 2017)
